Consider six molecules from ChEMBL document CHEMBL4261651, “Probing the ligand preferences of the three types of bacterial pantothenate kinase” (Bioorg Med Chem, 2018).

The source made the active and inactive calls. The rule behind the calls is not given here.

For assay [1], the system named is Escherichia coli. In words: Inhibition of N-terminal His6-tagged Escherichia coli PanK1 expressed in Escherichia coli BL21(DE3) cells at >= 100 uM using pantothenate as substrate in presence of ATP by pyruvate kinase/lactate dehydrogenase enzyme coupled assay.
Assay [2] concerns the target T1, Type III pantothenate kinase (Pseudomonas aeruginosa (strain ATCC 15692 / DSM 22644 / CIP 104116 /JCM 14847 / LMG 12228 / 1C / PRS 101 / PAO1)) (UniProt Q9HWC1).
T1 sequence (whole entry): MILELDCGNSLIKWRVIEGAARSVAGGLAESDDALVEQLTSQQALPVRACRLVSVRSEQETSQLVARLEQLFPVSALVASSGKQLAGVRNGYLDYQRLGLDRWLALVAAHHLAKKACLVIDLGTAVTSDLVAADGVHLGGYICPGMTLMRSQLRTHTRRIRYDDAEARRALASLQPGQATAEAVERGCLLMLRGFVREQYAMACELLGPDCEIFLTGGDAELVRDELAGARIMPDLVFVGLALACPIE
Put plainly: Inhibition of Pseudomonas aeruginosa PanK3 expressed in Escherichia coli BL21 Rosetta(DE3) cells at >= 100 uM using pantothenate as substrate in presence of ATP by pyruvate kinase/lactate dehydrogenase enzyme coupled assay.

Assay [3] addresses T2, Type II pantothenate kinase (Staphylococcus aureus (strain MSSA476)) (UniProt Q6G7I0).
T2 sequence (whole entry): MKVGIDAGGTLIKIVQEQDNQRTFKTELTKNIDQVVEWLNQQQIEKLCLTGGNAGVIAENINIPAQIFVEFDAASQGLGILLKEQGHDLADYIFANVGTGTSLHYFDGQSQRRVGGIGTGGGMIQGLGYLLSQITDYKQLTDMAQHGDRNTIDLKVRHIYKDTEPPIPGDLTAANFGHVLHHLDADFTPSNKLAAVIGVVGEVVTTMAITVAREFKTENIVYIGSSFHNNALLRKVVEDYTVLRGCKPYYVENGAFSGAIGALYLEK
In words: Inhibition of N-terminal His6-tagged Staphylococcus aureus PanK2 expressed in Escherichia coli BL21(DE3) cells at >= 100 uM using pantothenate as substrate in presence of ATP by pyruvate kinase/lactate dehydrogenase enzyme coupled assay.

Assay [4] has as its system Escherichia coli. In words: Growth inhibition of Escherichia coli ATCC 25922 after 16 hrs by broth microdilution method. The format is functional, organism-based. In general terms: Dilution methods test growth across graded concentrations, often in twofold steps.
A further assay concerns Enterococcus faecium. In words: Growth inhibition of Enterococcus faecium ATCC 19434 after 16 hrs by broth microdilution method. Type of assay: functional, organism-based.
A further assay deals with Pseudomonas aeruginosa. Put plainly: Growth inhibition of Pseudomonas aeruginosa ATCC 27853 after 16 hrs by broth microdilution method. Type of assay: functional, organism-based.
Assay [5] concerns Escherichia coli. In words: Substrate activity at N-terminal His6-tagged Escherichia coli PanK1 expressed in Escherichia coli BL21(DE3) cells in presence of ATP/NADH by pyruvate kinase/lactate dehydrogenase enzyme coupled assay.
Assay [6] deals with T1, Type III pantothenate kinase (Pseudomonas aeruginosa (strain ATCC 15692 / DSM 22644 / CIP 104116 /JCM 14847 / LMG 12228 / 1C / PRS 101 / PAO1)). Put plainly: Substrate activity at Pseudomonas aeruginosa PanK3 expressed in Escherichia coli BL21(DE3) cells in presence of ATP/NADH by pyruvate kinase/lactate dehydrogenase enzyme coupled assay.
Assay [7] has as its target T2, Type II pantothenate kinase (Staphylococcus aureus (strain MSSA476)). Put plainly: Substrate activity at N-terminal His6-tagged Staphylococcus aureus PanK2 expressed in Escherichia coli BL21(DE3) cells in presence of ATP/NADH by pyruvate kinase/lactate dehydrogenase enzyme coupled assay.
Assay [8] shares this target. Put plainly: Inhibition of N-terminal His6-tagged Staphylococcus aureus PanK2 expressed in Escherichia coli BL21(DE3) cells at 200 uM using pantothenate as substrate in presence of ATP by pyruvate kinase/lactate dehydrogenase enzyme coupled assay.
Assay [9] relates to Escherichia coli. In words: Substrate activity at N-terminal His6-tagged Escherichia coli PanK1 expressed in Escherichia coli BL21(DE3) cells assessed as Km in presence of ATP/NADH by pyruvate kinase/lactate dehydrogenase enzyme coupled assay.
The test system of assay [10] is Escherichia coli. Put plainly: Substrate activity at N-terminal His6-tagged Escherichia coli PanK1 expressed in Escherichia coli BL21(DE3) cells assessed as Kcat in presence of ATP/NADH by pyruvate kinase/lactate dehydrogenase enzyme coupled assay.
Assay [11] deals with Escherichia coli. Put plainly: Substrate activity at N-terminal His6-tagged Escherichia coli PanK1 expressed in Escherichia coli BL21(DE3) cells assessed as ratio of Kcat to Km in presence of ATP/NADH by pyruvate kinase/lactate dehydrogenase enzyme coupled assay.
Assay [12] addresses T2, Type II pantothenate kinase (Staphylococcus aureus (strain MSSA476)). In words: Substrate activity at N-terminal His6-tagged Staphylococcus aureus PanK2 expressed in Escherichia coli BL21(DE3) cells assessed as ratio of Kcat to Km in presence of ATP/NADH by pyruvate kinase/lactate dehydrogenase enzyme coupled assay.
For assay [13], the target named is T1, Type III pantothenate kinase (Pseudomonas aeruginosa (strain ATCC 15692 / DSM 22644 / CIP 104116 /JCM 14847 / LMG 12228 / 1C / PRS 101 / PAO1)). In words: Substrate activity at Pseudomonas aeruginosa PanK3 expressed in Escherichia coli BL21(DE3) cells assessed as ratio of Kcat to Km in presence of ATP/NADH by pyruvate kinase/lactate dehydrogenase enzyme coupled assay.

The subject of assay [14] is Escherichia coli. In words: Inhibition of N-terminal His6-tagged Escherichia coli PanK1 expressed in Escherichia coli BL21(DE3) cells at 200 uM using pantothenate as substrate in presence of ATP by pyruvate kinase/lactate dehydrogenase enzyme coupled assay.
Assay [15] concerns the target T1, Type III pantothenate kinase (Pseudomonas aeruginosa (strain ATCC 15692 / DSM 22644 / CIP 104116 /JCM 14847 / LMG 12228 / 1C / PRS 101 / PAO1)). In words: Inhibition of Pseudomonas aeruginosa PanK3 expressed in Escherichia coli BL21 Rosetta(DE3) cells at 200 uM using pantothenate as substrate in presence of ATP by pyruvate kinase/lactate dehydrogenase enzyme coupled assay.

As for `CC(C)(CNCCCO)[C@@H](O)C(=O)NCCC(=O)O`, the inhibition result (in the assay with Escherichia coli [1]; in assay [2]; in assay [3]) was “inactive” each time. For the same molecule, the “growth inhibition (GI)” value with Escherichia coli [4], in the assay with Enterococcus faecium and with Pseudomonas aeruginosa was “inactive” throughout. Also, the result (in the assay with Escherichia coli [5]; in assay [6]; in assay [7]) was inactive.

Consider `CC(C)(C(=O)O)[C@@H](O)C(=O)NCCC(=O)O`, for which, in assay [8], the inhibition entry was “Active”. Also, the “growth inhibition (GI)” value in the assay on Escherichia coli [4], in the assay on Enterococcus faecium and with Pseudomonas aeruginosa was “inactive” in each case.

`CC(C)(CO)[C@@H](O)C(=O)NCCC(=O)O`: the Km with Escherichia coli [9] is 17 µM. In addition, the kcat in the assay on Escherichia coli [10] was 1.29 s⁻¹. Also, the Ratio in the assay with Escherichia coli [11] was found to be 76 mM⁻¹ s⁻¹; in assay [12] it was 115 mM⁻¹ s⁻¹; in assay [13] it was 20 mM⁻¹ s⁻¹.

Regarding `O=C(O)CCNC(=O)[C@H](O)CCO`, the inhibition result (with Escherichia coli [1]; in assay [2]; in assay [3]) was “inactive” in each case. Besides, the Ratio in [13] is 5 mM⁻¹ s⁻¹. The “growth inhibition (GI)” value with Escherichia coli [4], with Enterococcus faecium and in the assay with Pseudomonas aeruginosa was “inactive” each time.

Regarding `CC(=O)CC(=O)NCC(C)(C)[C@@H](O)C(=O)NCCC(=O)O`, the inhibition result (with Escherichia coli [14]; in assay [15]; in assay [8]) was “Active” throughout. Moreover, the “growth inhibition (GI)” value in the assay with Escherichia coli [4], in the assay with Enterococcus faecium and with Pseudomonas aeruginosa was “inactive” throughout.

For `CC(C)(CO)[C@@H](O)C(=O)NCCCC(=O)O`, the inhibition entry (in the assay with Escherichia coli [1]; in assay [2]; in [3]) was “inactive” in each case. Further, the Ratio in assay [12] came to 57 mM⁻¹ s⁻¹; in [13] it was 1.4 mM⁻¹ s⁻¹. Also, the “growth inhibition (GI)” value with Escherichia coli [4], with Enterococcus faecium and with Pseudomonas aeruginosa was “inactive” each time.

The term Km denotes the concentration of substrate that gives half-maximal velocity. What is called kcat is the maximal rate divided by the concentration of active sites.
